Results published in publication PMC10843894 (Cell and tissue research, 2011).
Ends that are not written are not given here.

Experiments:
[1] = test system: plasma membrane Ca^2+ channels; type: cell-based, rat
PLC-β = test: Inhibition of secretin-evoked catecholamine secretion by PLC-β blockade; type: cell-based, rat; details: secretin 8 μM, 20 min
phospholipase C = details: U-73122 20 μM, secretin 8 μM, 0.5 min
cAMP in PC12 cells = details: cited from earlier work
Th gene = details: cited from earlier work; for transcription of Th (PACAP and VIP, literature): porcine/bovine chromaffin cells, PC12 cells, CATH.a cells, ref Isobe et al. 1996, Park et al. 1999, Tonshoff et al. 1997, Corbitt et al. 1998, 2002, Yukimasa et al. 1999, Muller et al. 1997
catecholamine secretion = details: cited from earlier work
SCTR = test: Inhibition of secretin-induced catecholamine secretion by SCTR antagonist; type: cell-based, rat; details: antagonist up to 20 μM, secretin 6 μM, 30 min
PAC1 receptor = PAC1 receptor agonism inferred from secretion concentrations; type: cell-based; details: inferred from secretion findings
VPAC1 = target: T1, VPAC1 (Rattus norvegicus, UniProt P30083); test: Blockade of secretin-induced Th transcription by VPAC1 antagonist; details: pre-treatment before secretin 0.1 μM (Fig. 1d)
T1 sequence (P30083 31-459): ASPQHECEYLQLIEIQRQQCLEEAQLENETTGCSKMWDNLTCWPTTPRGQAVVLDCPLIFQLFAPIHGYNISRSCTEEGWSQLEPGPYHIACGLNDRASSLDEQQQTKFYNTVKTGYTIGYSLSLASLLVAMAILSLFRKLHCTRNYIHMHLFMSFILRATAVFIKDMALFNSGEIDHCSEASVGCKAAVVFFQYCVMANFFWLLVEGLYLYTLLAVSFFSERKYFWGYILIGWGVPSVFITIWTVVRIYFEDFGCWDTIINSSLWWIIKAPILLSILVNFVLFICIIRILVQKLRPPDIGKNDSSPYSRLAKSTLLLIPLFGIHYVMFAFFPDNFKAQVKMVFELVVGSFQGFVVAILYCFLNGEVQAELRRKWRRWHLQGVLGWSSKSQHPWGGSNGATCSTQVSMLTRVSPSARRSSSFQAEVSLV

[2] = test system: plasma membrane Ca^2+ channels; type: cell-based, rat; details: ZnCl2 100 μM; data not shown
intracellular Ca^2+ = test: Secretin-induced catecholamine secretion with intracellular Ca2+ chelator; type: cell-based, rat; details: BAPTA-AM 50 μM pre-treatment 30 min; secretin 8 μM, 20 min, Ca2+-free buffer + 0.5 mM EGTA

ω-conotoxin MVIIC
effect of Ca2+ channel inhibitors on secretin-induced catecholamine secretion [1]: little to no effect

COc1ccc2c(c1)CC[C@@H]1[C@@H]2CC[C@]2(C)[C@@H](NCCCCCCN3C(=O)CCC3=O)CC[C@@H]12 [U-73343]
effect of inactive isomer on secretin-induced secretion (PLC-β; U-73343 10 μM): did not affect secretin-induced secretion

COc1ccc2c(c1)CC[C@@H]1[C@@H]2CC[C@]2(C)[C@@H](NCCCCCCN3C(=O)C=CC3=O)CC[C@@H]12 [U73122]
inhibition of secretin-evoked catecholamine secretion by PLC-β inhibitor (PLC-β; U-73122 10 μM): ~ 54%
inhibition of IP3 levels by PLC blockade (phospholipase C): ~ 61%

Pituitary adenylyl cyclase activating polypeptide [PACAP]
intracellular cAMP levels in chromaffin cells (literature), PACAP (cAMP in PC12 cells; ref Hamelink et al. 2002): elevated
transcription of Th (PACAP and VIP, literature) (Th gene): augment the transcription of Th
concentration achieving significant catecholamine secretion (PACAP) (catecholamine secretion; ref Chowdhury et al. 1994, Przywara et al. 1996): 10 nM
prolonged catecholamine secretion, PACAP (literature) (catecholamine secretion; ref Taupenot et al. 1999): long-lasting

secretin5–27: SCTR antagonist (secretin5–27) (TFTSELSRLREGARLQRLLQGLV; ends and bridges not checked; UniProt P09683 32-54, looked up, fragment)
effect of SCTR antagonist on secretin-induced secretion (SCTR): failed to inhibit secretion
effect of SCTR antagonist on VIP- or PHI-induced Th gene expression (Th gene; ref Wessels-Reiker et al. 1993): no significant effect
effect of SCTR antagonist on secretin-induced Th gene expression (literature) (Th gene; ref Wessels-Reiker et al. 1993): reduces the effect of secretin

Vasoactive intestinal polypeptide [VIP]
agonism at PAC1 receptor (PAC1 receptor): poor agonists for the PAC1 receptor
intracellular cAMP levels in chromaffin cells (literature), VIP (cAMP in PC12 cells; ref Anderova et al. 1998): elevated
transcription of Th (PACAP and VIP, literature) (Th gene): augment the transcription of Th
concentration achieving significant catecholamine secretion (VIP) (catecholamine secretion; ref Guo and Wakade 1994, Wakade et al. 1991): 300 nM
source of Ca2+ for VIP-induced catecholamine secretion (catecholamine secretion; ref Malhotra et al. 1988): depends solely upon Ca^2+ mobilization from intracellular stores

VIP6–28: VPAC1 (VIP6–28) antagonist (FTDNYTRLRKQMAVKKYLNSILN; ends and bridges not checked; UniProt P01282 130-152, looked up, fragment)
effect of VPAC1 antagonist on Th gene expression induced by secretin or PHI (Th gene; ref Wessels-Reiker et al. 1993): no significant effect
effect of VPAC1 antagonist on VIP-increased Th mRNA (Th gene; ref Wessels-Reiker et al. 1993): lowers the effect of VIP on increasing Th mRNA
effect on secretin-induced transcription of Th gene, VPAC1 antagonist (VPAC1): Failure

[Cl-].[Cl-].[Zn+2] [ZnCl2]
effect of non-specific Ca2+ channel blockade on secretin-induced secretion ([1]; ZnCl2 100 μM, secretin 8 μM, 20 min): ineffective
block of PACAP-induced catecholamine secretion [2]: completely blocked

CC(=O)OCOC(=O)CN(CC(=O)OCOC(C)=O)c1ccccc1OCCOc1ccccc1N(CC(=O)OCOC(C)=O)CC(=O)OCOC(C)=O [BAPTA-AM]
effect of BAPTA-AM on secretin-induced catecholamine secretion (intracellular Ca^2+): completely abolished

ω-agatoxin
effect of Ca2+ channel inhibitors on secretin-induced catecholamine secretion [1]: little to no effect

ω-conotoxin GVIA
effect of Ca2+ channel inhibitors on secretin-induced catecholamine secretion [1]: little to no effect

CN1CCC[C@H]1c1cccnc1 [nicotine]
prolonged catecholamine secretion, nicotine (literature) (catecholamine secretion; ref Hamelink et al. 2002): does not cause prolonged catecholamine secretion
